pIC50: −log10 of the molar value. Read-outs that look alike come from different tables or passages of the source.

21 compounds from US12509424B2, “Compound and composition as PDGF receptor kinase inhibitor” (NIPPON SHINYAKU CO., LTD., priority 2019, dated 2025) can be followed below.

The target in one test is PDGFR-β (Homo sapiens (Human), UniProt P09619). The test can be described thus: PDGFR-β tyrosine kinase inhibitory action (HTRF KinEASE-TK). The test is classed as biochemical. Particulars: PDGFR-β enzyme 1 ng/μL, 30° C. for 30 minutes; read-out: PDGF-β IC50. An outline of the steps:
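Recombinant PDGFR-β at 1 ng/μL final with TK substrate-3-biotin in a substrate solution containing 0.6 μM ATP; buffer 50 mM HEPES pH 7.0, 5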
On the technique in general: TR-FRET usually uses a lanthanide donor and a delayed reading to cut background.

Test [1] concerns pulmonary arterial smooth muscle cells. As to the kind of experiment: Suppression of proliferation of pulmonary arterial smooth muscle cells (PDGF-BB stimulation, BrdU). The test is classed as cell-based. To be noted: PASMC, read-out: Human normal PASMC proliferation suppression (PDGF stimulation_IC50). An outline of the steps:
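Healthy human pulmonary arterial smooth muscle cells, serum-starved a day in 0.1% FBS medium, were treated with compound at final 3 to 10,000 nM plus human PDGF-BB (final 10 ng/mL) and BrdU. After 1 day of culture, BrdU uptake was measured with an anti-BrdU antibody.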

The mark [2] stands for this setting: 24 h, healthy human derived pulmonary arterial smooth muscle cells, human PDGF-BB 10 ng/mL stimulation, BrdU uptake after 1 day, test substance final concentration 3 to 10,000 nM.

PDGFR-β, sequence (P09619 33-1106): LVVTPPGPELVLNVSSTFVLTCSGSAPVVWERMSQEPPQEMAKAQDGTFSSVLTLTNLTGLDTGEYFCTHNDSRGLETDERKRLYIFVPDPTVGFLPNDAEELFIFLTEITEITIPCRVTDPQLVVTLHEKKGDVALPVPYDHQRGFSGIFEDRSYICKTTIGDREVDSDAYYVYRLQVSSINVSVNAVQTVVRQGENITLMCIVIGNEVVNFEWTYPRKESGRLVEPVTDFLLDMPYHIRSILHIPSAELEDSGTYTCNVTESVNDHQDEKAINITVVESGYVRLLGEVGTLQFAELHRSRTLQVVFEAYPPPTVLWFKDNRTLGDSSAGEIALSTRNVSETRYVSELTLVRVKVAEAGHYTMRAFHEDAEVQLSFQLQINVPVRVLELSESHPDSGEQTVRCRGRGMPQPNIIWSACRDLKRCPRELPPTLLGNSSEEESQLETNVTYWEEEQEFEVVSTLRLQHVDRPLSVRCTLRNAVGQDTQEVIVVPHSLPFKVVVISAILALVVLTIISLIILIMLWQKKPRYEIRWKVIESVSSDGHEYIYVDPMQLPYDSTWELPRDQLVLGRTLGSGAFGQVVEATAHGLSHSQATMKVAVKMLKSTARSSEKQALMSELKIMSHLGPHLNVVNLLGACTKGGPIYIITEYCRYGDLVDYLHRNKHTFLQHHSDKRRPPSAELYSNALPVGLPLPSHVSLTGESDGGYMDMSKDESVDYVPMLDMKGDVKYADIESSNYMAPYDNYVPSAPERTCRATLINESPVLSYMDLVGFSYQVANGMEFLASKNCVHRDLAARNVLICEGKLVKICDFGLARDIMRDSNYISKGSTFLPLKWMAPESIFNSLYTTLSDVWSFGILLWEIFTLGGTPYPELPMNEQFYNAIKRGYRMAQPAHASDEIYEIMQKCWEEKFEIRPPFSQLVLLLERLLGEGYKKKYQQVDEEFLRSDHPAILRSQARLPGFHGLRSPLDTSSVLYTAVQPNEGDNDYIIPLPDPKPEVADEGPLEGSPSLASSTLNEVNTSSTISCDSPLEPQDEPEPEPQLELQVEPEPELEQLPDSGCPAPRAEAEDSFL

Consider `O=C(N[C@H]1CCCC[C@@H]1O)c1ccc(F)c(/C=C(\F)c2cnc(NCC3CC3)nc2)c1` [Example 202, 3-[(Z)-2-{2-[(cyclopropylmethyl)amino]pyrimidin-5-yl}-2-fluoroethenyl]-4-fluoro-N-[(1S,2S)-2-hydroxycyclohexyl]benzamide], for which the pIC50 on PDGFR-β is 7.11; in test [1] (setting [2]), 7.48.
As to `Cc1ccc(C(=O)N[C@H]2CCCC[C@@H]2O)cc1C#Cc1cncc(Br)n1` [Example 74, 3-[(6-bromopyrazin-2-yl)ethynyl]-N-[(1S,2S)-2-hydroxycyclohexyl]-4-methylbenzamide], the pIC50 at PDGFR-β is 6.74; in test [1] (setting [2]), 7.74.
The corresponding values for `Cc1ccc(C(=O)N[C@H]2CCCC[C@@H]2O)cc1NCc1cnc(N[C@@H]2CCOC2)nc1` [Example 135, N-[(1S,2S)-2-hydroxycyclohexyl]-4-methyl-3-{[(2-{[(3R)-oxolan-3-yl]amino}pyrimidin-5-yl)methyl]amino}benzamide] are 6.92 and 6.41.
On to `Cc1ccc(C(=O)N[C@H]2CCCC[C@@H]2O)cc1NCc1cnn2cccnc12` [Example 119, N-[(1S,2S)-2-hydroxycyclohexyl]-4-methyl-3-{[(pyrazolo[1,5-a]pyrimidin-3-yl)methyl]amino}benzamide], for which the pIC50 at PDGFR-β was 6.48; in test [1] (setting [2]) it was 7.03.
As to `Cc1ccc(C(=O)N[C@H]2CCCC[C@@H]2O)cc1NCc1ccc(NC(=O)C2CCOC2)nc1` (stereo partly drawn) [Example 139, N-{5-[(5-{[(1S,2S)-2-hydroxycyclohexyl]carbamoyl}-2-methylanilino)methyl]pyridin-2-yl}oxolane-3-carboxamide], the values for the pIC50 (at PDGFR-β; in test [1] (setting [2])) were 7.52 and 7.00, respectively.
In the case of `Cc1ccc(C(=O)N[C@H]2CCCC[C@@H]2O)cc1NCc1ccc(-n2cccn2)nc1` [Example 122, N-[(1S,2S)-2-hydroxycyclohexyl]-4-methyl-3-({[6-(1H-pyrazol-1-yl)pyridin-3-yl]methyl}amino)benzamide], the pIC50 at PDGFR-β is 6.82; in test [1] (setting [2]), 6.52.
Regarding `Cc1ccc(C(=O)N[C@H]2c3ccccc3C[C@@H]2O)cc1/C=C(\F)c1cncc(CN2CCN(C)CC2)c1` [Example 200, 3-[(Z)-2-fluoro-2-{5-[(4-methylpiperazin-1-yl)methyl]pyridin-3-yl}ethenyl]-N-[(1S,2S)-2-hydroxy-2,3-dihydro-1H-inden-1-yl]-4-methylbenzamide], the figures for the pIC50 (on PDGFR-β; in test [1] (setting [2])) were 7.80 and 6.92, respectively.
The corresponding values for `Nc1ncc(/C(F)=C/c2cc(C(=O)N[C@H]3CCCC[C@@H]3O)ccc2F)cn1` [Example 192, 3-[(Z)-2-(2-aminopyrimidin-5-yl)-2-fluoroethenyl]-4-fluoro-N-[(1S,2S)-2-hydroxycyclohexyl]benzamide] are 7.54 and 7.62.
Turning to `O=C(N[C@H]1CCCC[C@@H]1O)c1ccc(Cl)c(OCc2cncc(-c3ncccn3)c2)c1` [Example 167, 4-chloro-N-[(1S,2S)-2-hydroxycyclohexyl]-3-{[5-(pyrimidin-2-yl)pyridin-3-yl]methoxy}benzamide], the pIC50 (on PDGFR-β; in test [1] (setting [2])) was 6.68 each time.
Turning to `O=C(N[C@H]1CCCC[C@@H]1O)c1ccc(F)c(CNc2cncc(-c3ncccn3)c2)c1` [Example 151, 4-fluoro-N-[(1S,2S)-2-hydroxycyclohexyl]-3-({[5-(pyrimidin-2-yl)pyridin-3-yl]amino}methyl)benzamide], the pIC50 at PDGFR-β is 6.77; in test [1] (setting [2]) it was 6.60.
For `Cc1ccc(C(=O)N[C@H]2CCCC[C@@H]2O)cc1/C=C(\F)c1cncc(NCCN(C)C)c1` [Example 198, 3-[(Z)-2-(5-{[2-(dimethylamino)ethyl]amino}pyridin-3-yl)-2-fluoroethenyl]-N-[(1S,2S)-2-hydroxycyclohexyl]-4-methylbenzamide], the pIC50 at PDGFR-β is 8.14; in test [1] (setting [2]), 7.41.
The corresponding values for `O=C(N[C@H]1CCCC[C@@H]1O)c1ccc(F)c(/C=C(\F)c2cncc(-c3ccccn3)c2)c1` [Example 177, 3-[(Z)-2-([2,3′-bipyridin]-5′-yl)-2-fluoroethenyl]-4-fluoro-N-[(1S,2S)-2-hydroxycyclohexyl]benzamide] are 7.82 and 7.96.
For the compound `Cc1c(F)cc(C(=O)N[C@H]2CCCC[C@@H]2O)cc1NCc1cnc(N)nc1` [Example 143, 3-{[(2-aminopyrimidin-5-yl)methyl]amino}-5-fluoro-N-[(1S,2S)-2-hydroxycyclohexyl]-4-methylbenzamide], the results for the pIC50 (on PDGFR-β; in test [1] (setting [2])) were 7.01 and 7.05, respectively.
In the case of `CCOc1cncc(C(=O)Nc2cc(C(=O)N[C@H]3CCCC[C@@H]3O)ccc2C)c1` [Example 50, 5-ethoxy-N-(5-{[(1S,2S)-2-hydroxycyclohexyl]carbamoyl}-2-methylphenyl)pyridine-3-carboxamide], the pIC50 on PDGFR-β was 7.21; in test [1] (setting [2]) it was 6.57.
The corresponding values for `Cc1ncc(C(=O)N[C@H]2CCCC[C@@H]2O)cc1C#Cc1cncc(C2CC2)c1` [Example 73, 5-[(5-cyclopropylpyridin-3-yl)ethynyl]-N-[(1S,2S)-2-hydroxycyclohexyl]-6-methylpyridine-3-carboxamide] are 6.66 and 7.10.
As to `Cc1ccc(C(=O)N[C@H]2CCCC[C@@H]2O)cc1/C=C(\F)c1cncc(CN2CCN(C)CC2)c1` [Example 181, 3-[(Z)-2-fluoro-2-{5-[(4-methylpiperazin-1-yl)methyl]pyridin-3-yl}ethenyl]-N-[(1S,2S)-2-hydroxycyclohexyl]-4-methylbenzamide], the figures for the pIC50 (at PDGFR-β; in test [1] (setting [2])) were 7.00 and 6.30, respectively.
Take `Cc1ncc(C(=O)N[C@H]2CCCC[C@@H]2O)cc1CNc1cncc(C#CC2CC2)c1` [Example 157, 5-({[5-(cyclopropylethynyl)pyridin-3-yl]amino}methyl)-N-[(1S,2S)-2-hydroxycyclohexyl]-6-methylpyridine-3-carboxamide]: the pIC50 on PDGFR-β is 6.74; in test [1] (setting [2]), 7.28.
The corresponding values for `Cc1ccc(C(=O)N[C@H]2CCCC[C@@H]2O)cc1NCc1ccc(NC2COC2)nc1` [Example 141, N-[(1S,2S)-2-hydroxycyclohexyl]-4-methyl-3-[({6-[(oxetan-3-yl)amino]pyridin-3-yl}methyl)amino]benzamide] are 7.16 and 6.72.
Consider `Cc1ccc(C(=O)N[C@H]2CCCC[C@@H]2O)cc1/C=C(\F)c1cnc(N)cn1` [Example 206, 3-[(Z)-2-(5-aminopyrazin-2-yl)-2-fluoroethenyl]-N-[(1S,2S)-2-hydroxycyclohexyl]-4-methylbenzamide], for which the pIC50 at PDGFR-β was 7.51; in test [1] (human PDGF-BB 10 ng/mL, BrdU uptake, final concentration 3 to 10,000 nM) it was 7.04.
With `O=C(Nc1cc(C(=O)N[C@H]2CCCC[C@@H]2O)ccc1F)c1cncc(OCC2CC2)c1` [Example 56, 5-(cyclopropylmethoxy)-N-(2-fluoro-5-{[(1S,2S)-2-hydroxycyclohexyl]carbamoyl}phenyl)pyridine-3-carboxamide], the results for the pIC50 (on PDGFR-β; in test [1] (setting [2])) were 6.92 and 6.62, respectively.
Regarding `Cc1ccc(C(=O)N[C@H]2CCCC[C@@H]2O)cc1NCc1cnc2cccnn12` [Example 110, N-[(1S,2S)-2-hydroxycyclohexyl]-3-{[(imidazo[1,2-b]pyridazin-3-yl)methyl]amino}-4-methylbenzamide], the figures for the pIC50 (at PDGFR-β; in test [1] (setting [2])) were 6.46 and 6.62, respectively.
